Results from PubChem BioAssay AID330 (DTP/NCI, 2004).
Where “and” joins values, the source holds several entries; their conditions need not be identical. Equal entries are not always repeated. Inconclusive results and toxic doses are left out.

Test system: P388 leukemia ip, CD2F1 mice, survival T/C
Experiment: NCI In Vivo Anticancer Drug Screen. Data for tumor model P388 Leukemia (intraperitoneal) in CD2F1 (CDF1) mice
Settings: endpoint: median survival time, higher = longer survival
Outline: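 Mice carrying the transplanted tumor received test compound or vehicle. Survival was recorded in each group, and the value is the treated-group measurement divided by that of the vehicle-treated control group.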

[1] = dose: 100.0 mg/kg/injection, schedule: Q01DX001 (ip), vehicle: saline with Tween-80
[2] = dose: 200.0 mg/kg/injection, schedule: Q01DX001 (ip), vehicle: saline with Tween-80
[3] = dose: 50.0 mg/kg/injection, schedule: Q01DX005 (ip), vehicle: saline with Tween-80
[4] = dose: 100.0 mg/kg/injection, schedule: Q01DX005 (ip), vehicle: saline with Tween-80
[5] = dose: 50.0 mg/kg/injection, schedule: Q01DX005 (ip), vehicle: Klucel (hydroxypropylcellulose) (HPC)
[6] = dose: 100.0 mg/kg/injection, schedule: Q01DX005 (ip), vehicle: Klucel (hydroxypropylcellulose) (HPC)
[7] = dose: 200.0 mg/kg/injection, schedule: Q01DX005 (ip), vehicle: Klucel (hydroxypropylcellulose) (HPC)
[8] = dose: 60.0 mg/kg/injection, schedule: Q01DX005 (ip), vehicle: saline with Tween-80
[9] = dose: 120.0 mg/kg/injection, schedule: Q01DX005 (ip), vehicle: saline with Tween-80
[10] = dose: 240.0 mg/kg/injection, schedule: Q01DX005 (ip), vehicle: saline with Tween-80
[11] = dose: 50.0 mg/kg/injection, schedule: Q01DX005 (ip), vehicle: saline
[12] = dose: 50.0 mg/kg/injection, schedule: Q01DX009 (ip), vehicle: saline
[13] = dose: 100.0 mg/kg/injection, schedule: Q01DX009 (ip), vehicle: saline
[14] = dose: 200.0 mg/kg/injection, schedule: Q01DX009 (ip), vehicle: saline
[15] = dose: 25.0 mg/kg/injection, schedule: Q01DX005 (ip), vehicle: Klucel (hydroxypropylcellulose) (HPC)

O=C(/C=C\c1cccc2ccccc12)c1ccccn1
T/C [1]: 106 % of control
T/C [2]: 112 % of control
T/C (dose: 400.0 mg/kg/injection, schedule: Q01DX001 (ip), vehicle: saline with Tween-80): 112 % of control

CN(CCc1ccccn1)c1ccc2c(c1)C(=O)c1ccccc1-2
T/C [3]: 100 % of control
T/C [4]: 93 % of control

CCOc1cccc2c1C(=O)c1cccc(OCC)c1C2=O
T/C (dose: 100.0 mg/kg/injection, schedule: Q04DX003 (ip), vehicle: saline with Tween-80): 109 % of control
T/C (dose: 200.0 mg/kg/injection, schedule: Q04DX003 (ip), vehicle: saline with Tween-80): 104 % of control
T/C (dose: 400.0 mg/kg/injection, schedule: Q04DX003 (ip), vehicle: saline with Tween-80): 100 % of control

COC(=O)C1OC(SC(=N)N)C(OC(C)=O)C(OC(C)=O)C1OC(C)=O (stereo not drawn)
T/C (dose: 12.5 mg/kg/injection, schedule: Q01DX009 (ip), vehicle: water): 101 % of control
T/C (dose: 25.0 mg/kg/injection, schedule: Q01DX009 (ip), vehicle: water): 109 % of control
T/C (dose: 50.0 mg/kg/injection, schedule: Q01DX009 (ip), vehicle: water): 107 % of control and 117 % of control

CC(C)S(=O)c1ccccc1 (stereo not drawn)
T/C (dose: 50.0 mg/kg/injection, schedule: Q01DX001 (ip), vehicle: saline with Tween-80): 103 % of control
T/C [1]: 95 % of control
T/C [2]: 95 % of control

CC1=C(Cl)C(=N\S(=O)(=O)c2ccccc2)/c2ccccc2/C1=N/S(=O)(=O)c1ccccc1
T/C [1]: 95 % of control
T/C [2]: 95 % of control

O=C1OC(c2ccccc2)=N/C1=C/c1c(-c2ccccc2)c(-c2ccccc2)c2n1CCC2
T/C [5]: 86 % of control
T/C [6]: 86 % of control
T/C [7]: 86 % of control

O=C(NCCCl)NCCCl
T/C (dose: 10.0 mg/kg/injection, schedule: Q01DX009 (ip), vehicle: saline): 105 % of control and 108 % of control
T/C (dose: 20.0 mg/kg/injection, schedule: Q01DX009 (ip), vehicle: saline): 101 % of control and 102 % of control
T/C (dose: 40.0 mg/kg/injection, schedule: Q01DX009 (ip), vehicle: saline): 104 % of control and 108 % of control
T/C (dose: 80.0 mg/kg/injection, schedule: Q01DX009 (ip), vehicle: saline): 102 % of control and 109 % of control
T/C (dose: 160.0 mg/kg/injection, schedule: Q01DX009 (ip), vehicle: saline): 101 % of control and 104 % of control
T/C (dose: 320.0 mg/kg/injection, schedule: Q01DX009 (ip), vehicle: saline): 102 % of control and 106 % of control

CCO/C(=N/S(C)(=O)=O)NO
T/C [5]: 102 % of control
T/C [6]: 106 % of control
T/C [7]: 102 % of control

CC(C)(C)N1OC1C(Cl)(Cl)Cl (stereo not drawn)
T/C [8]: 101 % of control
T/C [9]: 104 % of control
T/C [10]: 104 % of control

CC(C)(C)c1ccc(NC(=O)c2ccccc2N)cc1
T/C [3]: 101 % of control
T/C [4]: 97 % of control
T/C (dose: 200.0 mg/kg/injection, schedule: Q01DX005 (ip), vehicle: saline with Tween-80): 92 % of control

CN(C)CCC1c2ccc(Cl)cc2CCc2cccnc21 (stereo not drawn) (tested in a mixture with another compound)
T/C [11]: 107 % of control
T/C (dose: 100.0 mg/kg/injection, schedule: Q01DX005 (ip), vehicle: saline): 99 % of control

O=c1cc[nH]cc1
T/C [12]: 100 % of control and 103 % of control
T/C [13]: 103 % of control and 109 % of control
T/C [14]: 101 % of control and 113 % of control
T/C (dose: 400.0 mg/kg/injection, schedule: Q01DX009 (ip), vehicle: saline): 111 % of control and 116 % of control
T/C (dose: 600.0 mg/kg/injection, schedule: Q01DX009 (ip), vehicle: saline): 112 % of control and 113 % of control

COc1cc2c(c(NC(C)CCCN=C(N)NC(N)=NC(C)C)c1)NCCC2 (stereo not drawn)
T/C (dose: 3.12 mg/kg/injection, schedule: Q01DX005 (ip), vehicle: saline with Tween-80): 103 % of control
T/C (dose: 6.25 mg/kg/injection, schedule: Q01DX005 (ip), vehicle: saline with Tween-80): 106 % of control
T/C (dose: 12.5 mg/kg/injection, schedule: Q01DX005 (ip), vehicle: saline with Tween-80): 106 % of control

CC1=C(Cl)C(=O)c2c(O)cccc2C1=O
T/C (dose: 1.0 mg/kg/injection, schedule: Q01DX005 (ip), vehicle: Klucel + Tween-80): 91 % of control
T/C (dose: 2.0 mg/kg/injection, schedule: Q01DX005 (ip), vehicle: Klucel + Tween-80): 94 % of control
T/C (dose: 4.0 mg/kg/injection, schedule: Q01DX005 (ip), vehicle: Klucel + Tween-80): 97 % of control

c1cc(Nc2ccc(Nc3ccc(CN4CCCCC4)cc3)cc2)ccc1CN1CCCCC1
T/C (dose: 12.5 mg/kg/injection, schedule: Q01DX009 (ip), vehicle: saline + Tween-80 + alcohol): 105 % of control
T/C (dose: 12.5 mg/kg/injection, schedule: Q01DX009 (ip), vehicle: saline with Tween-80): 103 % of control
T/C (dose: 25.0 mg/kg/injection, schedule: Q01DX009 (ip), vehicle: saline + Tween-80 + alcohol): 111 % of control and 114 % of control
T/C (dose: 25.0 mg/kg/injection, schedule: Q01DX009 (ip), vehicle: saline with Tween-80): 107 % of control
T/C (dose: 50.0 mg/kg/injection, schedule: Q01DX009 (ip), vehicle: saline + Tween-80 + alcohol): 114 % of control and 115 % of control
T/C (dose: 50.0 mg/kg/injection, schedule: Q01DX009 (ip), vehicle: saline with Tween-80): 111 % of control
T/C (dose: 100.0 mg/kg/injection, schedule: Q01DX009 (ip), vehicle: saline + Tween-80 + alcohol): 117 % of control and 118 % of control
T/C (dose: 100.0 mg/kg/injection, schedule: Q01DX009 (ip), vehicle: saline with Tween-80): 99 % of control
T/C (dose: 200.0 mg/kg/injection, schedule: Q01DX009 (ip), vehicle: saline + Tween-80 + alcohol): 124 % of control
T/C (dose: 200.0 mg/kg/injection, schedule: Q01DX009 (ip), vehicle: saline with Tween-80): 106 % of control
T/C (dose: 400.0 mg/kg/injection, schedule: Q01DX009 (ip), vehicle: saline with Tween-80): 114 % of control

C[Si](C)(C)c1ccccn1
T/C [8]: 108 % of control
T/C [9]: 103 % of control
T/C [10]: 113 % of control

CC(=O)Nc1cc(NC(C)=O)c(N=O)c(NC(C)=O)n1
T/C [12]: 100 % of control
T/C [13]: 99 % of control
T/C [14]: 91 % of control

[Ni].c1c[nH]cn1.c1c[nH]cn1.c1c[nH]cn1.c1c[nH]cn1.c1c[nH]cn1.c1c[nH]cn1
T/C (dose: 6.25 mg/kg/injection, schedule: Q01DX005 (ip), vehicle: saline): 92 % of control
T/C (dose: 12.5 mg/kg/injection, schedule: Q01DX005 (ip), vehicle: saline): 86 % of control
T/C (dose: 25.0 mg/kg/injection, schedule: Q01DX005 (ip), vehicle: saline): 87 % of control
T/C [11]: 100 % of control

COc1cc2cc[n+]3cc4c(ccc5ccccc54)cc3c2cc1OC
T/C (dose: 6.25 mg/kg/injection, schedule: Q04DX003 (ip), vehicle: distilled water + Tween-80): 166 % of control
T/C (dose: 12.5 mg/kg/injection, schedule: Q04DX003 (ip), vehicle: distilled water + Tween-80): 158 % of control
T/C (dose: 12.5 mg/kg/injection, schedule: Q04DX003 (ip), vehicle: water): 152 % of control
T/C (dose: 25.0 mg/kg/injection, schedule: Q04DX003 (ip), vehicle: distilled water + Tween-80): 177 % of control

COC(=O)C(C(C)=O)C(=O)c1cc([N+](=O)[O-])cc([N+](=O)[O-])c1 (stereo not drawn)
T/C (dose: 100.0 mg/kg/injection, schedule: Q04DX002 (ip), vehicle: Klucel (hydroxypropylcellulose) (HPC)): 98 % of control
T/C (dose: 200.0 mg/kg/injection, schedule: Q04DX002 (ip), vehicle: Klucel (hydroxypropylcellulose) (HPC)): 100 % of control
T/C (dose: 400.0 mg/kg/injection, schedule: Q04DX002 (ip), vehicle: Klucel (hydroxypropylcellulose) (HPC)): 97 % of control

O=C(N/N=C/c1ccccc1[O-])c1ccccc1O.O=C(N/N=C/c1ccccc1[O-])c1ccccc1O.[Mn+2]
T/C [5]: 100 % of control
T/C [6]: 103 % of control
T/C [7]: 103 % of control

CN(C)C1=C(Cl)C(=O)c2[nH]cnc2C1=O
T/C (dose: 6.25 mg/kg/injection, schedule: Q01DX005 (ip), vehicle: Klucel (hydroxypropylcellulose) (HPC)): 113 % of control
T/C (dose: 12.5 mg/kg/injection, schedule: Q01DX005 (ip), vehicle: Klucel (hydroxypropylcellulose) (HPC)): 110 % of control
T/C [15]: 98 % of control

COc1ccc(Cc2c3cc(OC)c(OC)cc3cc[n+]2CC(=O)c2ccc(F)cc2)cc1OC
T/C [15]: 108 % of control
T/C [5]: 100 % of control
